One data set deals with CYP2C9 (Homo sapiens, UniProt P11712). The data set can be described thus: Inhibition of CYP2C9 (unknown origin) assessed as remaining enzyme activity at 10 uM. Format: ADME. The settings on record: read-out: Activity.
Another data set addresses CYP2D6 (Homo sapiens, UniProt P10635). The data set can be described thus: Inhibition of CYP2D6 (unknown origin) assessed as remaining enzyme activity at 10 uM. It is filed as ADME. The following applies: read-out: Activity.
Data set [1] concerns the target Voltage-gated inwardly rectifying potassium channel KCNH2 (Homo sapiens, UniProt Q12809). Nature of the data set: Inhibition of human ERG.
Data set [2] deals with Rattus norvegicus. The data set can be described thus: Analgesic activity in rat model of spinal nerve ligation-induced neuropathic pain assessed as reduction in mechanical threshold for paw withdrawal at 100 mg/kg, po administered on day 14 after ligation surgery and measured 3 hrs post dose by Von Frey filaments based method. Format: functional, organism-based. Also noted: dose 100 mg/kg.

The target in the next data set is T1, CYP1A2 (Homo sapiens, UniProt P05177).
T1 sequence (P05177 whole entry): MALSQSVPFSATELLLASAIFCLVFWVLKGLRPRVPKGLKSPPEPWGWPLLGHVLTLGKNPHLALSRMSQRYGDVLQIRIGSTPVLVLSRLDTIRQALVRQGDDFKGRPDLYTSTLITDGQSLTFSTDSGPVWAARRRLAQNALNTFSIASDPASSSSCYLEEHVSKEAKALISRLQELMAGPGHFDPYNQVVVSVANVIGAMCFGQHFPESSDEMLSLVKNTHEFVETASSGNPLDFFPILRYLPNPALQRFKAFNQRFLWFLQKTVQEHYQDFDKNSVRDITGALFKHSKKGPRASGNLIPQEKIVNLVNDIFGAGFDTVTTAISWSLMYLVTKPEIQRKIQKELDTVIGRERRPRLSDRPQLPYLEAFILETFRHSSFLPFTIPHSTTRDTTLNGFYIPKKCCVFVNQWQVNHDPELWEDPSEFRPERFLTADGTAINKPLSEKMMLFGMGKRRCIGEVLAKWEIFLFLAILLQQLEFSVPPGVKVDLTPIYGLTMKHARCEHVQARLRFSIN
Nature of the data set: Inhibition of CYP1A2 (unknown origin) assessed as remaining enzyme activity at 10 uM. The settings on record: read-out: Activity. It is filed as ADME.

The target of data set [3] is Metabotropic glutamate receptor 1 (Homo sapiens) (UniProt Q13255). The data set can be described thus: Antagonist activity against human mGluR1 expressed in HEK cells assessed as inhibition of L-glutamate-induced intracellular calcium levels at 10 uM after 18 hrs. The settings on record: HEK293. Format: functional, cell-based. In general terms: Calcium assays in cells follow changes in intracellular calcium, usually with a dye or a luminescent sensor.

Data set [4] has the same target. Nature of the data set: Antagonist activity against human mGluR1 expressed in HEK cells assessed as inhibition of L-glutamate-induced intracellular calcium levels at 1 uM after 18 hrs. It is filed as functional, cell-based. The settings on record: HEK293.
A further data set deals with CYP3A4 (Homo sapiens, UniProt P08684). Nature of the data set: Inhibition of CYP3A4 (unknown origin) assessed as remaining enzyme activity at 10 uM. It is filed as ADME. The following applies: read-out: Activity.
The target in data set [5] is Metabotropic glutamate receptor 5 (Homo sapiens) (UniProt P41594). Nature of the data set: Antagonist activity against human mGluR5 expressed in HEK cells assessed as inhibition of L-glutamate-induced intracellular calcium levels at 10 uM after 18 hrs. The following applies: HEK293. It is filed as functional, cell-based.
Data set [6] shares this target. The data set can be described thus: Antagonist activity against human mGluR5 expressed in HEK cells assessed as inhibition of L-glutamate-induced intracellular calcium levels at 1 uM after 18 hrs. The following applies: HEK293. It is filed as functional, cell-based.
A further data set has as its target CYP2C19 (Homo sapiens, UniProt P33261). Nature of the data set: Inhibition of CYP2C19 (unknown origin) assessed as remaining enzyme activity at 10 uM. It is filed as ADME. The settings on record: read-out: Activity.
The subject of data set [7] is Rattus norvegicus. Nature of the data set: Analgesic activity in rat model of spinal nerve ligation-induced neuropathic pain assessed as reduction in cold allodynia by measuring paw withdrawal in response to acetone application at 100 mg/kg, po administered on day 14 after ligation surgery and measured 3 hrs post dose. It is filed as functional, organism-based. Also noted: dose 100 mg/kg.

The source made the active and inactive calls.

CYP2C19, sequence (P33261 whole entry): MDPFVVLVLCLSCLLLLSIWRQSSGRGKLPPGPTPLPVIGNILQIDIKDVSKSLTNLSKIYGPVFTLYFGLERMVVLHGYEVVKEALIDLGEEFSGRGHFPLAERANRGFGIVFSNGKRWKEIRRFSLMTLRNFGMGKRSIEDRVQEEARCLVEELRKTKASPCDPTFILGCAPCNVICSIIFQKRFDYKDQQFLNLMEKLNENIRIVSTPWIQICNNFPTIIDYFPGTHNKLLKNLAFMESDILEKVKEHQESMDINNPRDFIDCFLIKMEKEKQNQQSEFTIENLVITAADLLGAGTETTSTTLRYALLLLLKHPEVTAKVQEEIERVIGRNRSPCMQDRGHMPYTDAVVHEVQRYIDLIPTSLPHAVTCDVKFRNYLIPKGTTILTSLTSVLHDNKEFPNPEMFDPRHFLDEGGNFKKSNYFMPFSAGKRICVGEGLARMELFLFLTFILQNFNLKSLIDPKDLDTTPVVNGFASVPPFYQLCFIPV
Metabotropic glutamate receptor 1 (Homo sapiens), sequence (Q13255 19-1194 limits assumed): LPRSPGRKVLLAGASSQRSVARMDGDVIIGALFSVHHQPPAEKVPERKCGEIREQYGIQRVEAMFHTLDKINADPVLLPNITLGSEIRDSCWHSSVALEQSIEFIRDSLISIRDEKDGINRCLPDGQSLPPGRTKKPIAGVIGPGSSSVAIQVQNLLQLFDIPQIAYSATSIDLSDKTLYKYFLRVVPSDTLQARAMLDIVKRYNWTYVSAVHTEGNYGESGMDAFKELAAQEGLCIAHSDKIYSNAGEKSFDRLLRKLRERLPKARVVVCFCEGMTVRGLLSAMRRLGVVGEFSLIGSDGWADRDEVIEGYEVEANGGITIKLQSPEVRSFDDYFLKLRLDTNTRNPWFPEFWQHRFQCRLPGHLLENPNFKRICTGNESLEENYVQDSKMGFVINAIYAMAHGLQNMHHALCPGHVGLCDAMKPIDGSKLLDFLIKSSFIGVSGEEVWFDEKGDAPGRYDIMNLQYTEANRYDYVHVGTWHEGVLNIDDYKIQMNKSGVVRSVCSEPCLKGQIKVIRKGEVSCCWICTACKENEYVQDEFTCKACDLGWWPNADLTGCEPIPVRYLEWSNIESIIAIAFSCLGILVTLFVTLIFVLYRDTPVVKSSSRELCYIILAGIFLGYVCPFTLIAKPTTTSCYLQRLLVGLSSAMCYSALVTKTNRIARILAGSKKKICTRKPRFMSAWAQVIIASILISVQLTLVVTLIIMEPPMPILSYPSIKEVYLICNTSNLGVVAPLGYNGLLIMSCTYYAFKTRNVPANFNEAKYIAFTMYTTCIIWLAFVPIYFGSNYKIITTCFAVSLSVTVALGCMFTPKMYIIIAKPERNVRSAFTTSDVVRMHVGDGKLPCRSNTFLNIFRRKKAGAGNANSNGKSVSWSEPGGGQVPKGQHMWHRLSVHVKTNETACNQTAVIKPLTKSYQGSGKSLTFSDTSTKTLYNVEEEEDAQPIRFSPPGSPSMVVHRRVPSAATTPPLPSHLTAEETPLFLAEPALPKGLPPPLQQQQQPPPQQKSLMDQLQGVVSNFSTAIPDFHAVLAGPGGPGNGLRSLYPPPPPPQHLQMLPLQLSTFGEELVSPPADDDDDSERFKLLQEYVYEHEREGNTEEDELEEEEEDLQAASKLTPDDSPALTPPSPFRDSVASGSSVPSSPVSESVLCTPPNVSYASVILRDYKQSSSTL
CYP2C9, sequence (P11712 whole entry): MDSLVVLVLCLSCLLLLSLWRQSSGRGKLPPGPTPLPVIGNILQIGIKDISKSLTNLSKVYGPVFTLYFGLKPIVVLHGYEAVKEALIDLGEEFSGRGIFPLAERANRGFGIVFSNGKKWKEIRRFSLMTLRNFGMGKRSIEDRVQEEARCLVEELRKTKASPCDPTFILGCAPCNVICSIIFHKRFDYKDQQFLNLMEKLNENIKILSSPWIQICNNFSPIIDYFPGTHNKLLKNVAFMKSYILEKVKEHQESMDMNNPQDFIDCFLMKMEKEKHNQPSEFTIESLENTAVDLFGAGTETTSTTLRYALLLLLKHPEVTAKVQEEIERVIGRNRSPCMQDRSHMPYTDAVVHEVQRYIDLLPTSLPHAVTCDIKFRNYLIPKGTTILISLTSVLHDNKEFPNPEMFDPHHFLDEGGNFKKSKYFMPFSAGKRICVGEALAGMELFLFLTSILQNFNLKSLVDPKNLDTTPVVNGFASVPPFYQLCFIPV
CYP2D6, sequence (P10635 whole entry): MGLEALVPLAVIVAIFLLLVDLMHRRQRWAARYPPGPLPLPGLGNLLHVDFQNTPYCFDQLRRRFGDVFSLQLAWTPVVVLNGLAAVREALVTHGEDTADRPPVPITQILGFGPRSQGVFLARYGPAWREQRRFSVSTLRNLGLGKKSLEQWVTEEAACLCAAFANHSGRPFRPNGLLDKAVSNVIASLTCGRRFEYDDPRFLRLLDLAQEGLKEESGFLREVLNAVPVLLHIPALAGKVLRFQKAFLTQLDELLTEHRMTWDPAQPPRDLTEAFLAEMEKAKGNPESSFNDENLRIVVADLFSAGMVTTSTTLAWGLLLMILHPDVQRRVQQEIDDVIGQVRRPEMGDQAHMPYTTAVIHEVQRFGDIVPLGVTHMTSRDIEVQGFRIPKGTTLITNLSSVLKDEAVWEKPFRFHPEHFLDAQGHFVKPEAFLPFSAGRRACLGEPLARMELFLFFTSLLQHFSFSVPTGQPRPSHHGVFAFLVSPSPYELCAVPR
Metabotropic glutamate receptor 5 (Homo sapiens), sequence (P41594 21-1212 limits assumed): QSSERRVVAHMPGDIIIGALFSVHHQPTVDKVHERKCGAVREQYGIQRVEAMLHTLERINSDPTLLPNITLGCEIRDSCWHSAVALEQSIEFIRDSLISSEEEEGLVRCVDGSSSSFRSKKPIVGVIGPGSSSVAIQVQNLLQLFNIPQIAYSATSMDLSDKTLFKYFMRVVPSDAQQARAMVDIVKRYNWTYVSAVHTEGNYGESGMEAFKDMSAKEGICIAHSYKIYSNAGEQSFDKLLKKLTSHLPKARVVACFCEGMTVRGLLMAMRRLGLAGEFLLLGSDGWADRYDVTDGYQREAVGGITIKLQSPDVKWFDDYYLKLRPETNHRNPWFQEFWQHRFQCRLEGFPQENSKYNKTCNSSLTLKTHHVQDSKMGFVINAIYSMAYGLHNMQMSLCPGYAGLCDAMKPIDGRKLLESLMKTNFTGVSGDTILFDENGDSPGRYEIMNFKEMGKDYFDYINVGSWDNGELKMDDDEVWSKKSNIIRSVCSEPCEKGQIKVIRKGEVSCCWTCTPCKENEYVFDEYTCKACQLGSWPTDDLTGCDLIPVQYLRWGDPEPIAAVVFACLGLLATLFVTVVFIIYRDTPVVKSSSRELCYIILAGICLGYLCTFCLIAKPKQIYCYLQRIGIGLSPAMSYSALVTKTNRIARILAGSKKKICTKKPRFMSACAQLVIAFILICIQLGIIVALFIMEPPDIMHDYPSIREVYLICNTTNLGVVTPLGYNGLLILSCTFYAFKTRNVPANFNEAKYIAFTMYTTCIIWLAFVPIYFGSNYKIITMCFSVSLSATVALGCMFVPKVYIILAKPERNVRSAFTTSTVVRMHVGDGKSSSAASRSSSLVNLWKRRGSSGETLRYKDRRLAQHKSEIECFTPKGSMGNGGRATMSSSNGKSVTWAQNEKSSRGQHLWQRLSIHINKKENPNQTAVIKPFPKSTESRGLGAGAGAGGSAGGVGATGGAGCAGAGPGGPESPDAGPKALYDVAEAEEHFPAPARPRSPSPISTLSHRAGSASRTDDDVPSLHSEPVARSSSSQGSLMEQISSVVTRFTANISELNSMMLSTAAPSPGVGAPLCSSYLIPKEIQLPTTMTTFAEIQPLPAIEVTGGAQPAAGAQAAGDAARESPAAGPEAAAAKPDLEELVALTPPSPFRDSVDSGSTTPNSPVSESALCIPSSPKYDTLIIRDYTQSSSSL
CYP3A4, sequence (P08684 whole entry): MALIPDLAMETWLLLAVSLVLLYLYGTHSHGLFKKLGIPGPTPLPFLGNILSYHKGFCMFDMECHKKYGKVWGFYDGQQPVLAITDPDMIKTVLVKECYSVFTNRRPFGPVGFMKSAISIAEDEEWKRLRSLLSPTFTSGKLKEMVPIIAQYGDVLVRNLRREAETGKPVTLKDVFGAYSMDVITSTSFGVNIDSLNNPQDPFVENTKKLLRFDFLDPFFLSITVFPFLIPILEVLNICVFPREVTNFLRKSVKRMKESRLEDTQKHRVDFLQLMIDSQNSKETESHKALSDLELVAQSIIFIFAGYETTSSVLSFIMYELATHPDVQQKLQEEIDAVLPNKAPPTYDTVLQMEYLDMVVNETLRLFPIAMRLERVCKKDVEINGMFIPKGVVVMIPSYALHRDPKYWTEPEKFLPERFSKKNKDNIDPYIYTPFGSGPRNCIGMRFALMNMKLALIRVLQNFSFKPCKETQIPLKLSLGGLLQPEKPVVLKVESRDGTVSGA

The term IC50 denotes the concentration needed to halve the response being measured. A high value points to weaker potency. The inhibition is the percentage by which the read-out fell short of the control. For `CC(C)N1Cc2cc(-c3cc(-c4ccc(Cl)nc4)no3)ccc2C1=O`, the activity at 10 µM at CYP2C9 turned out to be 104%; at CYP2D6, 91.3%; at CYP1A2, 92.6%; at CYP3A4 it was 94.5%; at CYP2C19, 56.6%. Moreover, in data set [1], the IC50 was found to be 40 µM. Also, the Activity entry with Rattus norvegicus [2] and with Rattus norvegicus [7] was “Active” each time. In addition, the inhibition in data set [3] amounted to 47.1%; in data set [4] it was 45.4%; in data set [5] it was 36.5%; in data set [6] it was 22.7%.

In the case of `Cc1c(-c2ccc(Cl)cc2)noc1-c1ccc2c(c1)N(C(C)C)C2=O`, the inhibition in data set [3] turned out to be 49.1%; in data set [4], 20.3%; in [5], 28.7%; in [6], 9.46%.

For the molecule `Cc1c(-c2ccc(F)cc2)noc1-c1ccc2c(c1)CN(C(C)C)C2=O`, the inhibition in data set [3] amounted to 62.8%; in data set [4], 38.4%; in data set [5], 18.7%; in data set [6] it was 8.16%.

Consider `Cc1c(-c2ccc(F)cc2F)noc1-c1ccc2c(c1)CN(C(C)C)C2=O`, for which the activity at 10 µM on CYP2C9 stood at 2.55%; on CYP2D6, 104%; on CYP1A2, 89.6%; on CYP3A4, 98%; at CYP2C19, 59.2%. The inhibition in data set [3] was found to be 87.6%; in data set [4], 31.9%; in data set [5], 26.3%; in data set [6], 7.95%.

As to `COc1ccc(-c2cc(-c3ccc4c(c3)CN(C(C)C)C4=O)on2)cc1`, the inhibition in data set [3] was 35.1%; in data set [4], 41%; in [5] it was 15.1%; in data set [6], 15.4%.

On to `CC(C)N1Cc2cc(-c3cc(-c4cccnc4F)no3)ccc2C1=O`, for which the results for the inhibition in [3] and in data set [4] were 42.3% and 23.4%, respectively.

For `Cc1ccc(-c2cc(-c3ccc4c(c3)CN(C(C)C)C4=O)on2)cc1`, the inhibition was determined as 25.1% in data set [3], 37.4% in [4], 15% in data set [5] and 21.8% in data set [6].

For `COc1ccc(-c2cc(-c3ccc4c(c3)N(C(C)C)C4=O)on2)cc1`, the inhibition in data set [3] was 2.44%; in data set [4], 11.3%; in data set [5], 15.9%; in data set [6], 13.6%.

Turning to `CC(C)N1C(=O)c2ccc(-c3cc(-c4ccc(Cl)nc4)no3)cc21`, the inhibition in data set [3] was found to be 7.77%; in data set [4], 12.3%; in [5], 10.1%; in data set [6], 16.1%.

Consider `COc1ccc(-c2noc(-c3ccc4c(c3)N(C(C)C)C4=O)c2C)cc1`, for which the figures for the inhibition in data set [3] and in data set [4] were 13.7% and 9.68%, respectively.

With `CC(C)N1C(=O)c2ccc(-c3cc(-c4ccc(F)cc4F)no3)cc21`, the values for the inhibition in [3] and in [4] were 17.3% and 11.7%, respectively.

With `COc1ccc(-c2cc(-c3ccc4c(c3)CN(C(C)C)C4=O)on2)cn1`, the activity at 10 µM came out at 91.8% at CYP2C9; 87.5% on CYP2D6; 90.7% at CYP1A2; 95.6% at CYP3A4; 85.9% at CYP2C19. The same molecule gave an IC50 in data set [1] of 12 µM. In addition, the Activity result with Rattus norvegicus [2] and in the data set with Rattus norvegicus [7] was “Active” each time. The inhibition turned out to be 59.6% in data set [3], 16.6% in data set [4], 29.2% in data set [5] and 5.29% in data set [6].

In the case of `Cc1c(-c2ccc(Cl)nc2)noc1-c1ccc2c(c1)CN(C(C)C)C2=O`, the inhibition in data set [3] was found to be 56.9%; in data set [4], 47.1%; in data set [5] it was 26.3%; in [6] it was 22.2%.

On to `CC(C)N1Cc2cc(-c3cc(-c4ccccc4F)no3)ccc2C1=O`, for which the activity at 10 µM turned out to be 39.8% at CYP2C9; 45.8% on CYP2D6; 42.5% at CYP1A2; 107% on CYP3A4; 58.4% at CYP2C19. The inhibition came out at 88.6% in data set [3], 56.3% in data set [4], 22.5% in data set [5] and 21.9% in [6].

Consider `Cc1ccc(-c2cc(-c3ccc4c(c3)CN(C(C)C)C4=O)on2)cn1`, for which the inhibition in [3] worked out at 62.6%; in data set [4], 4.53%; in data set [5] it was 34.4%; in data set [6], 14%.

`CC(C)N1C(=O)c2ccc(-c3cc(-c4ccc(F)cc4)no3)cc21`: the inhibition stood at 50.4% in data set [3], 12.8% in data set [4], 34% in data set [5] and 1.82% in data set [6].

`CC(C)N1C(=O)c2ccc(-c3cc(-c4ccc(Cl)cc4)no3)cc21`: the inhibition is 33.9% in data set [3], 16.4% in [4], 10.3% in data set [5] and 12.2% in data set [6].

Take `COc1ccc(-c2noc(-c3ccc4c(c3)CN(C(C)C)C4=O)c2C)cn1`: the inhibition in [3] is 46.5%; in data set [4] it was 49.1%; in data set [5], 30.8%; in [6], 33.5%.

For the molecule `CC(C)N1Cc2cc(-c3cc(-c4ccc(F)cc4F)no3)ccc2C1=O`, the inhibition turned out to be 36.5% in data set [3], 39.8% in data set [4], 13.4% in data set [5] and 17.7% in data set [6].

`NCC1(CC(=O)O)CCCCC1`: the Activity entry with Rattus norvegicus [2] and in the data set with Rattus norvegicus [7] was “Active” in each case.

Regarding `CC(C)N1C(=O)c2ccc(-c3cc(-c4ccccc4F)no3)cc21`, the activity at 10 µM is 32% on CYP2C9; 57.1% on CYP2D6; 98.7% on CYP1A2; 120% on CYP3A4; 33.2% at CYP2C19. The Activity entry in the data set on Rattus norvegicus [2] and in the data set with Rattus norvegicus [7] was “inactive” in each case. Moreover, the inhibition in data set [3] amounted to 91.1%; in [4], 68%; in data set [5], 18.3%; in [6] it was 14.9%.

For the molecule `Cc1c(-c2ccc3c(c2)CN(C(C)C)C3=O)nnn1-c1ccc(F)cc1F`, the Activity result in the data set on Rattus norvegicus [2] and in the data set with Rattus norvegicus [7] was “Active” in each case. For the same molecule, the inhibition in data set [3] came to 93.1%; in data set [4], 92.5%.

On to `Cc1c(-c2ccc(Cl)cc2)noc1-c1ccc2c(c1)CN(C(C)C)C2=O`, for which the inhibition turned out to be 61.6% in data set [3], 30.7% in [4], 23.4% in data set [5] and 11.7% in data set [6].
